Key:
tryptase = test: In vitro tryptase inhibition assay (hydrolysis of tosyl-Gly-Pro-Lys-p-nitroanilide); assay type: biochemical, human; conditions: for Ki: tosyl-Gly-Pro-Lys-p-nitroanilide 0.5 mM, pH 8.2, 1 h pre-incubation, room temperature
Experimental: The compounds to be assayed (approximately 1 mg) were dissolved in 200 μL dimethylsulfoxide (DMSO) and diluted 1:10 into buffer containing 50 millimolar (mM) Tris-HCl (pH 8.2), 100 mM sodium chloride, and 0.05% polyoxyethylenesorbitan monolaurate (Tween-20®, available from Sigma, St. Louis, Mo.). Seven additional threefold dilutions were made from the initial dilution into the same buffer supplemented with 10% DMSO. Aliquots (50 microliters, μL) from each of the eight dilutions in the series were transferred to individual wells in a 96-well U-bottom microtiter plate. 25 μL of a stock solution of tryptase was added to each well and the samples were mixed and incubated for one hour at room temperature (tryptase was purified from human lung and skin tissue preparations, HMC-1 (human mast cell line) and also obtained from commercial sources (ICN Biomedicals, Irvine, Calif.; Athens Research & Technology, Athens, Ga.)). […] The tryptase solution was prepared by placing 60 μg/mL of tryptase into solution with 10 mM MES (2-[N-Morpholino]ethane sulfonic acid) containing 2 mM CaCl2, 20% glycerol and 50 μg/mL heparin. The enzyme reaction was initiated with the addition of the synthetic tripeptide substrate, tosyl-Gly-Pro-Lys-p-nitroanilide (available from Sigma, 25 μL; 0.5 mM final concentration).
However, Ki ' varies with the enzyme concentration used in the enzyme assay. […] The y-intercept of a replot of IC50 (ordinate) versus tryptase concentration (abscissa) produces a value for Ki '.
The inhibition constants (Ki ', micromolar (μM)) were determined for the compounds of the present invention.

antigen-challenged sheep [1] = test: Allergic sheep model of asthma: Specific Lung Resistance (SRL) after antigen challenge; assay type: in vivo
Experimental: (§1) The initial asthmatic response can be evaluated in guinea pigs, and dogs, and particularly, with a basenji-greyhound cross strain which develops nonspecific airway hyperresponsiveness to numerous nonallergenic substances, such as methacholine and citric acid. […] In dual responding animals, the initial asthmatic response (IAR) is followed by a late asthmatic response (LAR) at 6-8 hours post-exposure.
The allergic sheep model (see below) was used to evaluate the potential antiasthmatic effects of the compounds of the present invention.
(§2) The allergic sheep model of asthma was employed for he in vivo evaluation of the compounds of the invention as antiasthmatics. These methods have been published previously (see Abraham et al. (1983) Am. Rev. Respir. Dis. 128:839-844; Allegra et al. (1983) J. Appl. Physiol. 55:726-730; Russi et al. (1985) J. Appl. Physiol. 59:1416-1422; Soler et al. (1989) J. Appl. Physiol. 67:406-413. Each sheep serves as its own control. Body weights for these animals ranged from 20-50 kilograms.
The peak early response was taken as the average of the maximum values occurring immediately post-challenge. Peak late responses were calculated by averaging the maximum response values obtained for each animal within the 6-8 hour time period. This approach is conservative and eliminates the possible reduction in the late response due simply to averaging.
Three doses of the compound (2 mg in 10 mL water) were administered to sheep through an intergastric tube 1 hr before challenge, 4 hours post-challenge, and 24 hours post-challenge.

antigen-challenged sheep [2] = test: Allergic sheep model of asthma: airway hyperresponsiveness to carbachol (PC400) 24 hours after antigen challenge; assay type: in vivo
Experimental: as §1, §2
Twenty-four hours after antigen challenge in both the control and drug trial, the sheep developed airway hyperresponsiveness. Airway hyperresponsiveness is expressed as PC400, the concentration of carbachol that causes a 400% increase in SRL; therefore, a decrease in PC400 indicates hyperresponsiveness. […] The number of breath units fell to 12 for those animals in the control group.

## N=C(N)Nc1ccc(CNC(=O)N2CCN(C(=O)O[C@H]3CCC[C@@H](OC(=O)N4CCN(C(=O)NCc5ccc(NC(=N)N)cc5)CC4)CCC3)CC2)cc1 [Compound 3, cis-1,5-Cyclooctylene bis[4-(4-guanidinobenzylcarbamoyl)-1-piperazinecarboxylate]]
tryptase; apparent affinity comparable to enzyme concentration
  type of tryptase inhibition: tight binding inhibitor
antigen-challenged sheep [1]; Compound 3: aerosol 50 μg 0.5 h before, 4 h and 24 h after challenge, n=3 (FIG. 1), Compound 2: aerosol 3 x 0.1 mg (FIG. 5)
  early and late responses to antigen challenge, SRL (aerosol): significant attenuation of the early and late responses to the antigen challenge
antigen-challenged sheep [1]; aerosol predosing 0.5 mg/day x 3 days plus 0.5 mg 0.5 h before challenge (FIG. 7)
  early and late phase response to antigen challenge, SRL (aerosol pretreatment): significant attenuation of early and late phase response to antigen challenge
antigen-challenged sheep [1]; intragastric 2 mg in 10 mL water 1 h before, 4 h and 24 h post-challenge, untreated about 250
  early phase SRL (oral): about 175
antigen-challenged sheep [1]; intragastric 2 mg in 10 mL water 1 h before, 4 h and 24 h post-challenge, untreated over 200
  late phase SRL (oral): about 50
antigen-challenged sheep [1]; oral, 3 x 2 mg
  anti-asthmatic properties when delivered orally: significant anti-asthmatic properties when delivered orally
antigen-challenged sheep [2]; aerosol 3 x 50 μg (FIG. 2)
  airway function in antigen challenged sheep (aerosol): significant improvement in airway function
antigen-challenged sheep [2]; aerosol 3 x 50 μg, 24 h after challenge, baseline 32, control 12 (FIG. 2)
  airway hyperresponsiveness, PC400 (aerosol): ~32 breath units
antigen-challenged sheep [2]; aerosol predosing 0.5 mg/day x 3 days plus 0.5 mg 0.5 h before challenge (FIG. 8)
  airway function / PC400 (aerosol pretreatment): significant improvement in airway function
antigen-challenged sheep [2]; aerosol, 24 h after antigen challenge, Compound 3 3 x 50 μg (FIG. 2), Compound 2 3 x 0.1 mg (FIG. 6)
  onset of hyperresponsiveness (PC400, aerosol), result in words: block the onset of hyperresponsiveness

## NCCOCCNC(=O)N1CCN(C(=O)O[C@H]2CCC[C@@H](OC(=O)N3CCN(C(=O)NCCOCCN)CC3)CCC2)CC1 [Compound 38, cis-1,5-cyclooctylene bis{4-[2-(2-aminoethoxy)ethylcarbamoyl]-1-piperazinecarboxylate}]
tryptase
  Ki: 750 nM

## N=C(N)Nc1ccc(CNC(=O)N2CCN(C(=O)OCC3C4C=CC(CC4)C3COC(=O)N3CCN(C(=O)NCc4ccc(NC(=N)N)cc4)CC3)CC2)cc1 (stereo not drawn) [Compound 30, trans-2,3-bicyclo[2.2.2]oct-5-enylenedimethylene bis[4-(4-guanidinobenzylcarbamoyl)-1-piperazinecarboxylate]]
tryptase
  Ki: 8 nM

## NCCc1ccc(CC(=O)N2CCN(C(=O)O[C@H]3CCC[C@@H](OC(=O)N4CCN(C(=O)Cc5ccc(CCN)cc5)CC4)CCC3)CC2)cc1 [Compound 16]
tryptase
  Ki: 1.5 nM

## N=C(N)Nc1ccc(CNC(=O)N2CCN(C(=O)O[C@H]3CCC[C@@H](OC(=O)N4CCN(C(=O)NCCCN)CC4)CCC3)CC2)cc1 [Compound 53, cis-5-[4-(3-aminopropylcarbamoyl)piperazin-1-ylformyloxy]cyclooctyl 4-(4-guanidinobenzylcarbamoyl)-1-piperazinecarboxylate]
tryptase
  Ki: 44 nM

## NCC12CCC(CNC(=O)N3CCN(C(=O)O[C@H]4CCC[C@@H](OC(=O)N5CCN(C(=O)NCC67CCC(CN)(CC6)CC7)CC5)CCC4)CC3)(CC1)CC2 (relative stereo) [Compound 15, cis-1,5-cyclooctylene[4-(4-aminomethylbicyclo[2.2.2]oct-1-ylmethylcarbamoyl)-1-piperazinecarboxylate]]
tryptase
  Ki: 302 nM

## N=C(N)Nc1ccc(CNC(=O)N2CCN(C(=O)OCC34CCC(COC(=O)N5CCN(C(=O)NCc6ccc(NC(=N)N)cc6)CC5)(CC3)CC4)CC2)cc1 [Compound 47, 1,4-bicyclo[2.2.2]octylenedimethylene bis[4-(4-guanidinobenzylcarbamoyl)-1-piperazinecarboxylate]]
tryptase
  Ki: 0.42 nM

## CN(CCOC(=O)N[C@H]1CC[C@H](CN)CC1)C(=O)O[C@H]1CCC[C@@H](OC(=O)N(C)CCOC(=O)N[C@H]2CC[C@H](CN)CC2)CCC1 [Compound 40, cis-1,5-cyclooctylene bis[N-2-(trans-4-aminomethylcyclohexylaminoformyloxy)ethyl-N-methylaminocarboxylate]]
tryptase
  Ki: 1390 nM

## NCC1CCN(C(=O)NCCCCNC(=O)O[C@H]2CCC[C@@H](OC(=O)NCCCCNC(=O)N3CCC(CN)CC3)CCC2)CC1 [Compound 25, cis-1,5-cyclooctylene bis{4-[4-(aminomethyl)piperid-1-ylcarbonylamino]butylaminocarboxylate}]
tryptase
  Ki: 734 nM

## NCC1CCN(C(=O)NCC2CCN(C(=O)O[C@H]3CCC[C@@H](OC(=O)N4CCC(CNC(=O)N5CCC(CN)CC5)CC4)CCC3)CC2)CC1 [Compound 26, cis-1,5-cyclooctylene bis{4-[4-(aminomethyl)piperid-1-ylcarbonylaminomethyl)-1-piperidinecarboxylate}]
tryptase
  Ki: 332 nM

Source: US6022969A, “Compositions and methods for treating mast-cell mediated conditions” (AXYS Pharmaceuticals, Inc., priority 1995, dated 2000)
